# Values of other authors in patent US20030232417A1, “Process” (priority 2001, published 2003).
# System: fungi
# Conditions: limited number of fungi tested
smiles,measurement,value
"O=C1C=CCOC1(O)CO (stereo not shown) [microthecin, 2-hydroxy-2-(hydroxymethyl)-2H-pyran-3(6H)-one]",antifungal activity,antifungal against a limited number of fungi tested
